Source: ChEMBL document CHEMBL6109039, “Designed and synthesized novel tripeptides targeting diabetes and its related pathologies” (Eur J Med Chem, 2025)
Residues, ends and D or L forms follow the SMILES beside them.

Columns and labels:
Alpha glucosidase = Alpha glucosidase (Homo sapiens, UniProt O43451+P10253+P14410+Q2M2H8); experiment: Inhibition of Alpha-glucosidase (unknown origin) using p-nitrophenyl-alpha-D-glucopyranoside as substrate pre-incubated for 10 mins followed by substrate addition and measured after 5 mins by spectrophotometric analysis; assay type: protein assay
Albumin [1] = target: T1, Albumin (Homo sapiens, UniProt P02768); experiment: Inhibition of D-fructose glycation in human serum albumin model by measuring ketoamine moieties incubated for 5 days by Nitroblue tetrazolium (NBT) reduction assay (reference value: 111.94 nmol/mL); conditions: 120 h, time 5 day
T1 sequence (P02768 whole entry): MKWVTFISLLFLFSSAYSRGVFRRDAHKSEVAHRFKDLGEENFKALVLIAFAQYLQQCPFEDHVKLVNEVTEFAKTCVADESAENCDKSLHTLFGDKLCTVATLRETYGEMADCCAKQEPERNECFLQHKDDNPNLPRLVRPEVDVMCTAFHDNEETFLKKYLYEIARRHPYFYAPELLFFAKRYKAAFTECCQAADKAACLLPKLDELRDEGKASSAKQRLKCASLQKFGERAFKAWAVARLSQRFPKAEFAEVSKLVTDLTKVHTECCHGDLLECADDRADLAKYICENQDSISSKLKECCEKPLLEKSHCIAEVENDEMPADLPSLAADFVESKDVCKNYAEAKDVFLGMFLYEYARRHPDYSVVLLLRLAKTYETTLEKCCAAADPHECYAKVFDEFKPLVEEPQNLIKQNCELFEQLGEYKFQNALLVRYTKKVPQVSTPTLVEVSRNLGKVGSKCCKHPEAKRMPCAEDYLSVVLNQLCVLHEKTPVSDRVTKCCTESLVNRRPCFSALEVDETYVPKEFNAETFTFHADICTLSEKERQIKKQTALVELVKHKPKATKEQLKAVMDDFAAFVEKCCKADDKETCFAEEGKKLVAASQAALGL

Albumin [2] = target: T1, Albumin; experiment: Inhibition of D-glucose glycation in human serum albumin model incubated for 14 days by UV spectroscopic analysis relative to control; conditions: 336 h, time 14 day
Albumin [3] = target: T1, Albumin; experiment: Inhibition of D-fructose glycation in human serum albumin model by measuring ketoamine moieties incubated for 30 days by Nitroblue tetrazolium (NBT) reduction assay (reference value: 128.71 nmol/mL); conditions: 720 h, time 30 day
Albumin [4] = target: T1, Albumin; experiment: Inhibition of D-glucose glycation in human serum albumin model by measuring ketoamine moieties incubated for 7 days by Nitroblue tetrazolium (NBT) reduction assay (reference value: 35.92 nmol/mL); conditions: 168 h, time 7 day
Albumin [5] = target: T1, Albumin; experiment: Inhibition of D-fructose glycation in human serum albumin model by measuring ketoamine moieties incubated for 3 days by Nitroblue tetrazolium (NBT) reduction assay (reference value: 152.64 nmol/mL); conditions: 72 h, time 3 day
Albumin [6] = target: T1, Albumin; experiment: Inhibition of D-fructose glycation in human serum albumin model by measuring absorbance at 279 nm incubated for 7 days by UV spectroscopic analysis (reference value: 1.072); conditions: 168 h, time 7 day
Albumin [7] = target: T1, Albumin; experiment: Inhibition of D-fructose glycation in human serum albumin model by measuring absorbance at 279 nm incubated for 26 days by UV spectroscopic analysis (reference value: 2.267); conditions: 624 h, time 26 day
Mus musculus [8] = experiment: Antidiabetic activity in Nicotinamide/Streptozotocin induced male Balb/c mouse model assessed as reduction in LDL-Cholesterol level in blood at 63.81 ug/kg, ip treated for 21 days (reference value: 46 +/- 2.30 mg/dL); assay type: functional; conditions: dose 63.81 µg/kg, time 21 day
Albumin [9] = target: T1, Albumin; experiment: Inhibition of D-fructose glycation in human serum albumin model by measuring ketoamine moieties incubated for 7 days by Nitroblue tetrazolium (NBT) reduction assay (reference value: 125.33 nmol/mL); conditions: 168 h, time 7 day
Albumin [10] = target: T1, Albumin; experiment: Inhibition of D-fructose glycation in human serum albumin model by measuring absorbance at 279 nm incubated for 33 days by UV spectroscopic analysis (Rvb =2.222); conditions: 792 h, time 33 day
Albumin [11] = target: T1, Albumin; experiment: Inhibition of D-fructose glycation in human serum albumin model by measuring absorbance at 279 nm incubated for 3 days by UV spectroscopic analysis (reference value: 0.492); conditions: 72 h, time 3 day
Mus musculus [12] = experiment: Antidiabetic activity in Nicotinamide/Streptozotocin induced male Balb/c mouse model assessed as relative liver weight at 63.81 ug/kg, ip treated for 21 days (reference value: 0.77 +/- 0.04 mg/g); assay type: functional; conditions: dose 63.81 µg/kg, time 21 day
Mus musculus [13] = experiment: Antidiabetic activity in Nicotinamide/Streptozotocin induced male Balb/c mouse model assessed as reduction in total cholesterol level in blood at 63.81 ug/kg, ip treated for 21 days (reference value: 121 +/- 6.05 mg/dL); assay type: functional; conditions: dose 63.81 µg/kg, time 21 day
Pancreatic alpha-amylase = target: T2, Pancreatic alpha-amylase (Sus scrofa, UniProt P00690); experiment: Inhibition of porcine pancreatic Alpha-amylase using starch as substrate pre-incubated for 20 mins followed by substrate addition and measured after 15 mins by DNS reagent based absorbance assay
T2 sequence (P00690 whole entry): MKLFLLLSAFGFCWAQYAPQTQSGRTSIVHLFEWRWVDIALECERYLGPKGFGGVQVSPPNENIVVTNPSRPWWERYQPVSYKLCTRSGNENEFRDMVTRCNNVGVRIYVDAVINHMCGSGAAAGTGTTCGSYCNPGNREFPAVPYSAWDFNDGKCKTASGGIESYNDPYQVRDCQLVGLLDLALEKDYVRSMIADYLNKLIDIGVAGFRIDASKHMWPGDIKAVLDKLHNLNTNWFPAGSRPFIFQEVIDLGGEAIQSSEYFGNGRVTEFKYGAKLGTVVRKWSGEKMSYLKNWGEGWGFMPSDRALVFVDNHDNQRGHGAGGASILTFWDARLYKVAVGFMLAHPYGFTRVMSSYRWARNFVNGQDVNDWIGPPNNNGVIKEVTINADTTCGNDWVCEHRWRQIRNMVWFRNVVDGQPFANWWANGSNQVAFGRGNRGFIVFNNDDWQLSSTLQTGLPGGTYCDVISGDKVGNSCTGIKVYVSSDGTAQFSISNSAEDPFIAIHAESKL

Mus musculus [14] = experiment: Antidiabetic activity in Nicotinamide/Streptozotocin induced male Balb/c mouse model assessed as reduction in HDL-cholesterol level in blood at 63.81 ug/kg, ip treated for 21 days (reference value: 30 +/- 1.80 mg/dL); assay type: functional; conditions: dose 63.81 µg/kg, time 21 day
Albumin [15] = target: T1, Albumin; experiment: Inhibition of D-fructose glycation in human serum albumin model by measuring absorbance at 279 nm incubated for 14 days by UV spectroscopic analysis (reference value: 2.333); conditions: 336 h, time 14 day
Albumin [16] = target: T1, Albumin; experiment: Inhibition of D-fructose glycation in human serum albumin model incubated for 14 days by UV spectroscopic analysis relative to control; conditions: 336 h, time 14 day
Albumin [17] = target: T1, Albumin; experiment: Inhibition of D-glucose glycation in human serum albumin model by measuring absorbance at 279 nm incubated for 30 days by UV spectroscopic analysis (reference value: 2.295); conditions: 720 h, time 30 day
Albumin [18] = target: T1, Albumin; experiment: Inhibition of D-fructose glycation in human serum albumin model by measuring ketoamine moieties incubated for 14 days by Nitroblue tetrazolium (NBT) reduction assay (reference value: 129.58 nmol/mL); conditions: 336 h, time 14 day
Albumin [19] = target: T1, Albumin; experiment: Inhibition of D-glucose glycation in human serum albumin model by measuring ketoamine moieties incubated for 26 days by Nitroblue tetrazolium (NBT) reduction assay (reference value: 28.79 nmol/mL); conditions: 624 h, time 26 day
Albumin [20] = target: T1, Albumin; experiment: Inhibition of D-glucose glycation in human serum albumin model by measuring ketoamine moieties incubated for 3 days by Nitroblue tetrazolium (NBT) reduction assay (reference value: 24.27 nmol/mL); conditions: 72 h, time 3 day

IC50 (Alpha glucosidase): 98 µM
Activity (Albumin [1]): 90.74 nmol/mL
inhibition (INH) (Albumin [2]): 74.68%
Activity (Albumin [3]): 108.46 nmol/mL
Activity (Albumin [4]): 12.579 nmol/mL
Activity (Albumin [5]): 135.37 nmol/mL
OD (Albumin [6]): 0.665
OD (Albumin [7]): 1.502
Activity (Albumin [9]): 113.45 nmol/mL
OD (Albumin [10]): 1.298
OD (Albumin [11]): 0.287
IC50 (Pancreatic alpha-amylase): 96 µM
OD (Albumin [15]): 1.207
inhibition (INH) (Albumin [16]): 16.45%
OD (Albumin [17]): 2.555
Activity (Albumin [18]): 91.22 nmol/mL
Activity (Albumin [19]): 20.174 nmol/mL
Activity (Albumin [20]): 19.383 nmol/mL
Compound: N=C(N)NCCC[C@H](N)C(=O)N[C@@H](Cc1c[nH]c2ccccc12)C(=O)N[C@@H](Cc1c[nH]c2ccccc12)C(=O)O (H-Arg-Trp-Trp-OH)
Activity (Mus musculus [8]): 31 mg/dL
Activity (Mus musculus [12]): 1.22 mg/g
Activity (Mus musculus [13]): 108 mg/dL
Activity (Mus musculus [14]): 41 mg/dL
